Reference: patent US12673945B2, “3-((8-((1H-pyrazol-4-yl)amino)imidazo[1,2-a]pyridin-3-yl)ethinyl)-n-phenylbenzamide derivative, method for preparing same, and pharmaceutical composition containing same as active ingredient for prevention or treatment of cancer” (DAEGU-GYEONGBUK MEDICAL INNOVATION FOUNDATION, priority 2020, dated 2026)

Tests used:
Assay in all cases: scanMAX Kinase panel (DiscoverX)
Assay type in all cases: binding
CIT = biological target: T1, CIT (Homo sapiens, UniProt O14578)
T1 construct: purchased DiscoverX scanMAX Kinase panel
Method in brief: (§1)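 In this selectivity panel, the kinase was challenged with 1 μM of test agent in DMSO. Percent control was then computed from compound, positive-control and negative-control signals.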

TAOK1 = biological target: T2, TAOK1 (Homo sapiens, UniProt Q7L7X3); settings: read-out: % Cont @ 1 uM
T2 construct: purchased DiscoverX scanMAX Kinase panel
Method in brief: as §1

EPHA1 = biological target: T3, EPHA1 (Homo sapiens, UniProt P21709); settings: read-out: % Cont @ 1 uM
T3 construct: purchased DiscoverX scanMAX Kinase panel
Method in brief: as §1

FES = biological target: T4, FES (Homo sapiens, UniProt P07332); settings: read-out: % Cont @ 1 uM
T4 construct: purchased DiscoverX scanMAX Kinase panel
T4 sequence (P07332 whole entry): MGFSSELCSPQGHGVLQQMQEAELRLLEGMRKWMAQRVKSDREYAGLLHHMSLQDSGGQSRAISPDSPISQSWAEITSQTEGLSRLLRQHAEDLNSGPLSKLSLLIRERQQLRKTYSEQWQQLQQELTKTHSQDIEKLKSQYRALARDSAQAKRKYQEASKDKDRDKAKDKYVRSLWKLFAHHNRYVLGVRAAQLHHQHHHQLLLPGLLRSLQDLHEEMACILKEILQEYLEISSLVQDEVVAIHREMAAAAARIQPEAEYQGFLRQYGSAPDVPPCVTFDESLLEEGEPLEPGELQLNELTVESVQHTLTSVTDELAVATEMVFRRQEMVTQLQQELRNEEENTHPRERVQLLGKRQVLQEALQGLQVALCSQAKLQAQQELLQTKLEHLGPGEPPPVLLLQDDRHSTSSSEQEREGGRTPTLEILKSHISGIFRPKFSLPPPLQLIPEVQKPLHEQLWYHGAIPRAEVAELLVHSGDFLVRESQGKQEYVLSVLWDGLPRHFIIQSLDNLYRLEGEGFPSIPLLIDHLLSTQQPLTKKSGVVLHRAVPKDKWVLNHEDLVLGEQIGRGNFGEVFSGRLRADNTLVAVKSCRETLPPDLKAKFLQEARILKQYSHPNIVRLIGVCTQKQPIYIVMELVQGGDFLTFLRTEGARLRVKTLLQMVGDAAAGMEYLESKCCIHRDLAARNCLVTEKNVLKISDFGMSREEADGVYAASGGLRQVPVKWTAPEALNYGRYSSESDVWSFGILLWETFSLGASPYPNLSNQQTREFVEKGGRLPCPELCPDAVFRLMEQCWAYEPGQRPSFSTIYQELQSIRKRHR
Method in brief: as §1

HCK = biological target: T5, HCK (Homo sapiens, UniProt P08631); settings: read-out: % Cont @ 1 uM
T5 construct: purchased DiscoverX scanMAX Kinase panel
Method in brief: as §1

EPHB6 = biological target: T6, EPHB6 (Homo sapiens, UniProt O15197); settings: read-out: % Cont @ 1 uM
T6 construct: purchased DiscoverX scanMAX Kinase panel
Method in brief: as §1

[1] = biological target: T7, EGFR(L747-S752del, P753S) (Homo sapiens, UniProt P00533, DEL747-752/P753S)
T7 construct: purchased DiscoverX scanMAX Kinase panel
Method in brief: as §1

TRKB = biological target: T8, TRKB (Homo sapiens, UniProt Q16620); settings: read-out: % Cont @ 1 uM
T8 construct: purchased DiscoverX scanMAX Kinase panel
Method in brief: as §1

ZAK = biological target: T9, ZAK (Homo sapiens, UniProt Q9NYL2); settings: read-out: % Cont @ 1 uM
T9 construct: purchased DiscoverX scanMAX Kinase panel
Method in brief: as §1

MAP4K4 = biological target: T10, MAP4K4 (Homo sapiens, UniProt O95819); settings: read-out: % Cont @ 1 uM
T10 construct: purchased DiscoverX scanMAX Kinase panel
T10 sequence (O95819 whole entry): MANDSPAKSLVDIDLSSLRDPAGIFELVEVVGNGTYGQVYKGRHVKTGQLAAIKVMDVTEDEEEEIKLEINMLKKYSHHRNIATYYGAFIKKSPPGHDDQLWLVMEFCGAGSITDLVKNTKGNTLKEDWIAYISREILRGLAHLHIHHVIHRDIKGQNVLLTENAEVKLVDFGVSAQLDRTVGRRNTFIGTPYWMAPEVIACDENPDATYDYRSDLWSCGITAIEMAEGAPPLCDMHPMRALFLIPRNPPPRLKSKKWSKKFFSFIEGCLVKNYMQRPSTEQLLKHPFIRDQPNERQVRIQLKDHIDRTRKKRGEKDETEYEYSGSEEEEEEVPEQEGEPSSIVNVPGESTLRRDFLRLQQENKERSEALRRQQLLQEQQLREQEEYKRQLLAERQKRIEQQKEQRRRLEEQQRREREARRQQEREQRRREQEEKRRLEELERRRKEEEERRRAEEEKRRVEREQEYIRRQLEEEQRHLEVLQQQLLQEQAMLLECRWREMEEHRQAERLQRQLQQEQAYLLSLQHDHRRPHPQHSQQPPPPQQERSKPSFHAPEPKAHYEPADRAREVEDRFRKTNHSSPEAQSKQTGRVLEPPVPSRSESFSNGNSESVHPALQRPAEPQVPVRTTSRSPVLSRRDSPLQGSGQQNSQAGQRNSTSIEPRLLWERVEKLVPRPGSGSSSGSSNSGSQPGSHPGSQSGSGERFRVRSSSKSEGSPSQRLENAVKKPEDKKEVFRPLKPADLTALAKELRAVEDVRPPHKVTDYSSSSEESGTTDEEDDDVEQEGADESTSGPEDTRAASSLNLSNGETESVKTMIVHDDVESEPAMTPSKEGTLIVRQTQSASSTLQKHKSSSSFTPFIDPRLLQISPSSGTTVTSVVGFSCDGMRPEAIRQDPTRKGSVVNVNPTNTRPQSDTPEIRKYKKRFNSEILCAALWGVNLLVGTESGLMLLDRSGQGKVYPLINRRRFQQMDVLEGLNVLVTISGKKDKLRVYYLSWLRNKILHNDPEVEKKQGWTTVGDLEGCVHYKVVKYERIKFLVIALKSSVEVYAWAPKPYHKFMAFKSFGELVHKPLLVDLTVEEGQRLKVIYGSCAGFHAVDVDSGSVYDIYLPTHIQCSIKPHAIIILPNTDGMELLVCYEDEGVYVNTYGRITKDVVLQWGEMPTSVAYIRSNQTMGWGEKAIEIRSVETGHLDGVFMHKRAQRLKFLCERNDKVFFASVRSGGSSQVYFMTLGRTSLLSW
Method in brief: as §1

MAP3K3 = biological target: T11, MAP3K3 (Homo sapiens, UniProt Q99759); settings: read-out: % Cont @ 1 uM
T11 construct: purchased DiscoverX scanMAX Kinase panel
Method in brief: as §1

KIT = biological target: T12, KIT (Homo sapiens, UniProt P10721); settings: read-out: % Cont @ 1 uM
T12 construct: purchased DiscoverX scanMAX Kinase panel
Method in brief: as §1

RET(V804M) = biological target: T13, RET(V804M) (Homo sapiens, UniProt P07949, V804M); settings: read-out: % Cont @ 1 uM
T13 construct: purchased DiscoverX scanMAX Kinase panel
T13 sequence (P07949 29-1114 V804M): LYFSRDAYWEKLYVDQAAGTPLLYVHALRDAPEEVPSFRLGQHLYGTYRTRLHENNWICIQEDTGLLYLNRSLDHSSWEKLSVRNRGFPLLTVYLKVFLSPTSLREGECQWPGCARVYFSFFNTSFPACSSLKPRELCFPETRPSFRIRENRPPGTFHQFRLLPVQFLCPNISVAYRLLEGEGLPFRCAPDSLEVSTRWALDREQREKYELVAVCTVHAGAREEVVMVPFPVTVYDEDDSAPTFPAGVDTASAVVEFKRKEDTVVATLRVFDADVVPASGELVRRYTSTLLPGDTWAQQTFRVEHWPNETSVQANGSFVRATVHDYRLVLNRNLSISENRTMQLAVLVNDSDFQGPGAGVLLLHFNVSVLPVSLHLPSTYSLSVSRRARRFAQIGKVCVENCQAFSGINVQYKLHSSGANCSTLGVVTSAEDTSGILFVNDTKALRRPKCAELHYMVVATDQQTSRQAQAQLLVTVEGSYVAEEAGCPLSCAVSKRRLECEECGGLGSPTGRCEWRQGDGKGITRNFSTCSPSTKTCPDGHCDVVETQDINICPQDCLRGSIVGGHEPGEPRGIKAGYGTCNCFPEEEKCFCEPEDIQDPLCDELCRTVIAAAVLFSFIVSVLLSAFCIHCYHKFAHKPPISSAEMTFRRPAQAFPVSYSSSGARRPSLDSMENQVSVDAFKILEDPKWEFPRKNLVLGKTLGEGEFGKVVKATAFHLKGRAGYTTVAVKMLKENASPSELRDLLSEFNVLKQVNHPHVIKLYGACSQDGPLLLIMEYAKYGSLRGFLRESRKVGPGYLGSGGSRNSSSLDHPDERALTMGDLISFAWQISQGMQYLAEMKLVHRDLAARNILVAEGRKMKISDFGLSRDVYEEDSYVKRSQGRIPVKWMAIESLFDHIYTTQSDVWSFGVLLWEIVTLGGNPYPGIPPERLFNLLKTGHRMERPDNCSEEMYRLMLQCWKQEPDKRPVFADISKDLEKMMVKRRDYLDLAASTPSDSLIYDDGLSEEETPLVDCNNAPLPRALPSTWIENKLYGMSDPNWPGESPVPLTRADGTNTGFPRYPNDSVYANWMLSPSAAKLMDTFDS
Method in brief: as §1

DDR2 = biological target: T14, DDR2 (Homo sapiens, UniProt Q16832); settings: read-out: % Cont @ 1 uM
T14 construct: purchased DiscoverX scanMAX Kinase panel
Method in brief: as §1

EPHA3 = biological target: T15, EPHA3 (Homo sapiens, UniProt P29320); settings: read-out: % Cont @ 1 uM
T15 construct: purchased DiscoverX scanMAX Kinase panel
Method in brief: as §1

p38-delta = biological target: T16, p38-delta (Homo sapiens, UniProt O15264); settings: read-out: % Cont @ 1 uM
T16 construct: purchased DiscoverX scanMAX Kinase panel
Method in brief: as §1

FYN = biological target: T17, FYN (Homo sapiens, UniProt P06241); settings: read-out: % Cont @ 1 uM
T17 construct: purchased DiscoverX scanMAX Kinase panel
Method in brief: as §1

TRKA = biological target: T18, TRKA (Homo sapiens, UniProt P04629); settings: read-out: % Cont @ 1 uM
T18 construct: purchased DiscoverX scanMAX Kinase panel
Method in brief: as §1

MUSK = biological target: T19, MUSK (Homo sapiens, UniProt O15146); settings: read-out: % Cont @ 1 uM
T19 construct: purchased DiscoverX scanMAX Kinase panel
T19 sequence (O15146 24-869): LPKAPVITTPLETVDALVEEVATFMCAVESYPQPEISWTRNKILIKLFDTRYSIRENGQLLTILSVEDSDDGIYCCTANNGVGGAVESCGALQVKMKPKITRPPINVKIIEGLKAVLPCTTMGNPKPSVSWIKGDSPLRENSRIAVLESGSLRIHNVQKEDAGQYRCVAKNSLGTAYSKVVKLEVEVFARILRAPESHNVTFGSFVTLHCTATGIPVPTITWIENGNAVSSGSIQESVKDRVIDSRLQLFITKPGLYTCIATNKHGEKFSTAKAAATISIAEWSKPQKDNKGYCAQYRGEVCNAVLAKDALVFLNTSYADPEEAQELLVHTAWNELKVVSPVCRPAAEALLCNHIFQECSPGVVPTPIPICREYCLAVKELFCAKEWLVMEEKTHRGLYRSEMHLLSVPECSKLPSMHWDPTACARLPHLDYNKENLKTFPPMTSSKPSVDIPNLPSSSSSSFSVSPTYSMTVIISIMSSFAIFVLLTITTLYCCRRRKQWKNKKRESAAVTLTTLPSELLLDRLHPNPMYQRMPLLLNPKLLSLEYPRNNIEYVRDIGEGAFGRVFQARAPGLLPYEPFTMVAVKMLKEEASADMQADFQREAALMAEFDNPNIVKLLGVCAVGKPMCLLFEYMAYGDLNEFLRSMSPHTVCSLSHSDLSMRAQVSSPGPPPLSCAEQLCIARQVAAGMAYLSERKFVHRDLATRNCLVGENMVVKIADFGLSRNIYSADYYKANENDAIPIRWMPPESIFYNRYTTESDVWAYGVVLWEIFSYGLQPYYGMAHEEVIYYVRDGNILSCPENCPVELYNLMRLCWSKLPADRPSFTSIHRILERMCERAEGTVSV
Method in brief: as §1

BRAF = biological target: T20, BRAF (Homo sapiens, UniProt P15056); settings: read-out: % Cont @ 1 uM
T20 construct: purchased DiscoverX scanMAX Kinase panel
Method in brief: as §1

ERBB4 = biological target: T21, ERBB4 (Homo sapiens, UniProt Q15303); settings: read-out: % Cont @ 1 uM
T21 construct: purchased DiscoverX scanMAX Kinase panel
Method in brief: as §1

FGFR3 = biological target: T22, FGFR3 (Homo sapiens, UniProt P22607); settings: read-out: % Cont @ 1 uM
T22 construct: purchased DiscoverX scanMAX Kinase panel
Method in brief: as §1

EGFR(L747-T751del, Sins) = biological target: T23, EGFR(L747-T751del, Sins) (Homo sapiens, UniProt P00533, DEL747-750/T751S)
T23 construct: purchased DiscoverX scanMAX Kinase panel
Method in brief: as §1

BTK = biological target: T24, BTK (Homo sapiens, UniProt Q06187)
T24 construct: purchased DiscoverX scanMAX Kinase panel
Method in brief: as §1

IKK-beta = biological target: T25, IKK-beta (Homo sapiens, UniProt O14920); settings: read-out: % Cont @ 1 uM
T25 construct: purchased DiscoverX scanMAX Kinase panel
Method in brief: as §1

FLT3(ITD) = test system: FLT3(ITD)
Method in brief: as §1

[2] = biological target: T26, ABL1(F317I)-nonphosphorylated (Homo sapiens, UniProt P00519, F317I); settings: read-out: % Cont @ 1 uM
T26 construct: purchased DiscoverX
Method in brief: as §1

FLT4 = biological target: T27, FLT4 (Homo sapiens, UniProt P35916); settings: read-out: % Cont @ 1 uM
T27 construct: purchased DiscoverX scanMAX Kinase panel
Method in brief: as §1

TNIK = biological target: T28, TNIK (Homo sapiens, UniProt Q9UKE5); settings: read-out: % Cont @ 1 uM
T28 construct: purchased DiscoverX scanMAX Kinase panel
Method in brief: as §1

[3] = biological target: T29, EGFR(L747-E749del, A750P) (Homo sapiens, UniProt P00533, A750P/DEL747-749)
T29 construct: purchased DiscoverX scanMAX Kinase panel
Method in brief: as §1

FLT3(D835Y) = biological target: T30, FLT3(D835Y) (Homo sapiens, UniProt P36888, D835Y); settings: read-out: % Cont @ 1 uM
T30 construct: purchased DiscoverX scanMAX Kinase panel
Method in brief: as §1

PDGFRB = biological target: T31, PDGFRB (Homo sapiens, UniProt P09619); settings: read-out: % Cont @ 1 uM
T31 construct: purchased DiscoverX scanMAX Kinase panel
Method in brief: as §1

PFCDPK1(P. falciparum) = biological target: T32, PFCDPK1(P. falciparum) (Plasmodium falciparum, UniProt P62344); settings: read-out: % Cont @ 1 uM
T32 construct: purchased DiscoverX scanMAX Kinase panel
T32 sequence (P62344 whole entry): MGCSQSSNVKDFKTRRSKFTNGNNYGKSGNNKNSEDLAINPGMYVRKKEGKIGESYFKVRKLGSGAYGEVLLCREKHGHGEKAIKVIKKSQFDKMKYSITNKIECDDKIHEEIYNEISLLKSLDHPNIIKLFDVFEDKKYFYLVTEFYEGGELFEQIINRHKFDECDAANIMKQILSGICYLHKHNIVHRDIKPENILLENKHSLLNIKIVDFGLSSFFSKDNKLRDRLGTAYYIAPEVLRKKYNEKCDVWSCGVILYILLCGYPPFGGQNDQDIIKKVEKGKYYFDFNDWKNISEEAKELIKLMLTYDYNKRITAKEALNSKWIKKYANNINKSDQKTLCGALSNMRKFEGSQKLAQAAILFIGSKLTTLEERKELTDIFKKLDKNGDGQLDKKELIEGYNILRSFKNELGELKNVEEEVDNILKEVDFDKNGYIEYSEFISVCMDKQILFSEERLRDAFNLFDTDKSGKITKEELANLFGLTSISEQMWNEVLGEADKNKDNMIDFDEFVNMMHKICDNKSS
Method in brief: as §1

CDKL2 = biological target: T33, CDKL2 (Homo sapiens, UniProt Q92772); settings: read-out: % Cont @ 1 uM
T33 construct: purchased DiscoverX scanMAX Kinase panel
Method in brief: as §1

[4] = biological target: T34, ABL1(Y253F)-phosphorylated (Homo sapiens, UniProt P00519, Y253F); settings: read-out: % Cont @ 1 uM
T34 construct: purchased DiscoverX scanMAX Kinase panel
Method in brief: as §1

p38-alpha = biological target: T35, p38-alpha (Homo sapiens, UniProt Q16539)
T35 construct: purchased DiscoverX scanMAX Kinase panel
T35 sequence (Q16539 whole entry): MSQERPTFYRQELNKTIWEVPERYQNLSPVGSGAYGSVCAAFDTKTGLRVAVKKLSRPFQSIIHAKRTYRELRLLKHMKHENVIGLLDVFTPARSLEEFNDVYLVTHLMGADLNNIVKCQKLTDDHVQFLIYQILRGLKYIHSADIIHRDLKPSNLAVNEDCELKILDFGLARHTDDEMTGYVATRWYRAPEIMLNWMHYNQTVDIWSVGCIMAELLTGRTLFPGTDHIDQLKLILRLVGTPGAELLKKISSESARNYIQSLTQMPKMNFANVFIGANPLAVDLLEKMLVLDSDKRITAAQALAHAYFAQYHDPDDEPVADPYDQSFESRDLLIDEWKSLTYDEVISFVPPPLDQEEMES
Method in brief: as §1

LCK = biological target: T36, LCK (Homo sapiens, UniProt P06239); settings: read-out: % Cont @ 1 uM
T36 construct: purchased DiscoverX scanMAX Kinase panel
Method in brief: as §1

FLT3(R834Q) = biological target: T37, FLT3(R834Q) (Homo sapiens, UniProt P36888, R834Q); settings: read-out: % Cont @ 1 uM
T37 construct: purchased DiscoverX scanMAX Kinase panel
Method in brief: as §1

HPK1 = biological target: T38, HPK1 (Homo sapiens, UniProt Q92918); settings: read-out: % Cont @ 1 uM
T38 construct: purchased DiscoverX scanMAX Kinase panel
Method in brief: as §1

Structure (SMILES) | % Cont @ 1 uM (CIT) [%] | remaining binding at 1 µM (TAOK1) [%] | remaining binding at 1 µM (EPHA1) [%] | remaining binding at 1 µM (FES) [%] | remaining binding at 1 µM (HCK) [%] | remaining binding at 1 µM (EPHB6) [%] | % Cont @ 1 uM [1] [%] | remaining binding at 1 µM (TRKB) [%] | remaining binding at 1 µM (ZAK) [%] | remaining binding at 1 µM (MAP4K4) [%] | remaining binding at 1 µM (MAP3K3) [%] | percent of control binding at 1 µM (KIT) [%] | remaining binding at 1 µM (RET(V804M)) [%] | remaining binding at 1 µM (DDR2) [%] | remaining binding at 1 µM (EPHA3) [%] | percent of control binding at 1 µM (p38-delta) [%] | remaining binding at 1 µM (FYN) [%] | remaining binding at 1 µM (TRKA) [%] | remaining binding at 1 µM (MUSK) [%] | remaining binding at 1 µM (BRAF) [%] | also measured
Cc1cn(-c2cc(NC(=O)c3cc(C#Cc4cnc5c(Nc6cnn(C)c6)cccn45)c(C)cc3F)cc(C(C)(C)C#N)c2)cn1 [Example 1, N-(3-(2-cyanopropane-2-yl)-5-(4-methyl-1H-imidazol-1-yl)phenyl)-2-fluoro-4-methyl-5-((8-((1-methyl-1H-pyrazol-4-yl)amino)imidazo[1,2-a]pyridin-3-yl)ethynyl)benzamide] | 0.1 | 11 | 4.1 | 1.6 | 0.2 | 0 | 1.3 | 0.6 | 1.5 | 0.75 | 19 | 0 | 0.35 | 2 | 4 | 29 | 3 | 0.6 | 5 | 13 | remaining binding at 1 µM (ERBB4): 18%; remaining binding at 1 µM (FGFR3): 23%; % Cont @ 1 uM (EGFR(L747-T751del, Sins)): 11%; % Cont @ 1 uM (BTK): 2.2%; percent of control binding at 1 µM (IKK-beta): 26%; % Cont @ 1 uM (FLT3(ITD)): 1.1%; remaining binding at 1 µM [2]: 50%; remaining binding at 1 µM (FLT4): 0.35%; remaining binding at 1 µM (TNIK): 7.2%; % Cont @ 1 uM [3]: 11%; remaining binding at 1 µM (FLT3(D835Y)): 14%; remaining binding at 1 µM (PDGFRB): 0%; remaining binding at 1 µM (PFCDPK1(P. falciparum)): 12%; remaining binding at 1 µM (CDKL2): 0.7%; remaining binding at 1 µM [4]: 0.15%; % Cont @ 1 uM (p38-alpha): 0.65%; remaining binding at 1 µM (LCK): 0.15%; remaining binding at 1 µM (FLT3(R834Q)): 0.9%; remaining binding at 1 µM (HPK1): 2%
Cc1cn(-c2cc(NC(=O)c3cc(C#Cc4cnc5c(Nc6cnn(C)c6)cccn45)c(C)cc3F)cc(C(F)(F)F)c2)cn1 [Example 4, 2-fluoro-4-methyl-N-(3-(4-methyl-1H-imidazol-1-yl)-5-(trifluoromethyl)phenyl)-5-((8-((1-methyl-1H-pyrazol-4-yl)amino)imidazo[1,2-a]pyridin-3-yl)ethynyl)benzamide] | 0.45 | 96 | 37 | 55 | 0.65 | 0 | 40 | 7.7 | 8.1 | 15 | 82 | 1.6 | 4.3 | 6.5 | 8.4 | 92 | 32 | 2.6 | 46 | 34 | remaining binding at 1 µM (ERBB4): 46%; remaining binding at 1 µM (FGFR3): 88%; % Cont @ 1 uM (EGFR(L747-T751del, Sins)): 28%; % Cont @ 1 uM (BTK): 38%; percent of control binding at 1 µM (IKK-beta): 56%; % Cont @ 1 uM (FLT3(ITD)): 6.6%; remaining binding at 1 µM [2]: 2.8%; remaining binding at 1 µM (FLT4): 4.4%; remaining binding at 1 µM (TNIK): 25%; % Cont @ 1 uM [3]: 24%; remaining binding at 1 µM (FLT3(D835Y)): 22%; remaining binding at 1 µM (PDGFRB): 0.05%; remaining binding at 1 µM (PFCDPK1(P. falciparum)): 48%; remaining binding at 1 µM (CDKL2): 14%; remaining binding at 1 µM [4]: 5.9%; % Cont @ 1 uM (p38-alpha): 49%; remaining binding at 1 µM (LCK): 0.4%; remaining binding at 1 µM (FLT3(R834Q)): 34%; remaining binding at 1 µM (HPK1): 41%
